Patent US5962502A, “Polyamidic acid derivatives with antigastrin activity, a method for their preparation, and their pharmaceutical use” (priority 1993, dated 1999)
Several values for one entry are separate records, joined by “and”; a condition that tells them apart may be missing. Equal values may be shown once.

Key:
[1] = target: T1, gastrin receptors or type-B cholecystokinin (CCK-B) receptors (Oryctolagus cuniculus, UniProt P46627); assay: Inhibition of the gastrin-induced increase of cytosolic calcium in rabbit gastric mucous-membrane cells (Fura 2); type: cell-based; conditions: for Ratio IC50 Binding cortex / IC50 (gastric mucous cells): binding values taken from Table 3; for CCK-B-antagonistic activity IC50 (II): data taken from Table 4 (rabbit gastric mucous cells), reprinted in Table 6; for IC50, inhibition of the increase of cytosolic calcium: rabbit gastric mucous cells enriched in parietal cells, gastrin 5×10^-8
T1 construct: Rabbit gastric mucous-membrane cells were prepared by conventional techniques; endogenous in cells; host or cells: freshly isolated rabbit gastric mucosal cells, enriched by elutriation to about 70% parietal cells
T1 sequence (P46627 1-452): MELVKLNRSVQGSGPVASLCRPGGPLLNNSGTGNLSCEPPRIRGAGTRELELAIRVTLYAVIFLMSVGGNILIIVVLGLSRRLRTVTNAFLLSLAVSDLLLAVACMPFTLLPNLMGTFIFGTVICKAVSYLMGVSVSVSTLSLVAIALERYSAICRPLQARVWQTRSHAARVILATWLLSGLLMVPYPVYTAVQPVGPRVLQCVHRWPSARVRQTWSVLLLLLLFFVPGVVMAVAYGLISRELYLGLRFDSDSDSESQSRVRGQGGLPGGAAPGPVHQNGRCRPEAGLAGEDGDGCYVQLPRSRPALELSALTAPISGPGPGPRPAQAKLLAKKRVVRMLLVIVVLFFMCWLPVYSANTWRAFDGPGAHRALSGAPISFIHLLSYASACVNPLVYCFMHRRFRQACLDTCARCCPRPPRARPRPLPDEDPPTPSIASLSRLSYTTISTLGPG
Text: The parietal cells of the gastric mucous membrane are responsible for the secretion of HCl. They have specific membrane receptors which can be activated by gastrin and which have been defined as gastrin receptors or type-B cholecystokinin (CCK-B) receptors. Since it has been observed that the activation of the CCK-B receptors by gastrin leads to an increase in the cytosolic levels of calcium ions, a technique involving the measurement of the increase in intracellular calcium induced by gastrin in the presence and in the absence of the compounds of the invention was used as an index of the antigastrin activity of the compounds. Rabbit gastric mucous-membrane cells were prepared by conventional techniques with the use of collagenase and pronase as digestive enzymes. The cellular preparation obtained by the enzymatic digestion was composed of parietal cells, zymogen cells and mucous-membrane cells. […] The cells were then washed and resuspended in a saline solution buffered with HEPES containing, in mM: […] Each measurement was carried out on cells in suspension (0.8×10^6 /ml) at a thermostatically-controlled temperature of 37° C. and with constant magnetic stirring. The fluorescence was recorded with the use of a spectrofluorometer. The operative wavelengths were 340/380 nm for excitation and 505 nm for emission. […] Biol. Chem. 260 (1985), 3440]. […] The results thus obtained for some compounds of the invention are given in Table 4, which also gives an index derived from the ratio between the peripheral antigastrin activity just described and the displacement activity found in the test on binding to the guinea-pig cortex receptors described above.

[2] = tested on: acid secretion induced by pentagastrin; assay: Acid secretion induced by pentagastrin in the anaesthetized rat; type: in vivo; conditions: iv, 1 h, I.V. bolus, pentagastrin 30 mcg/kg/h, read-out: Activity (ID50), inhibition of the acid secretion induced by pentagastrin
Experimental: The activity of the compounds of the invention against gastric secretion performed by means of a mechanism with an antigastrin effect, was examined in vivo in anaesthetized rats with the use of male animals weighing about 200 g. Gastric secretion was stimulated with pentagastrin and Lai's method [Gut 5, (1964), 327-341 ] was used, with slight modification.
After tracheotomy, the oesophagus and duodenum were cannulated. A tepid solution (37° C.) of 0.25 mM NaOH was perfused and was passed through the stomach by means of a peristaltic pump at a constant flow-rate of 1 ml/minute. After stabilization for 20 minutes, the stimulant, dissolved in a physiological solution, was perfused for 120 minutes at a dose of 30 mcg/kg/h, in a volume of 0.95 ml/hour. After perfusion for 60 minutes (the basal stimulation), the product under test was administered intravenously (I.V.) as a bolus and perfusion of the stimulant was continued for a further 60 minutes. The acid secretion was recorded continuously as a function of time.
The activity of the product was evaluated as the percentage reduction of secreted acidity after the administration of the product, in comparison with the basal acidity measured during the first 60 minutes of collection in the presence of pentagastrin alone.
The antagonistic compounds tested were administered in various doses so that an ID50, that is, the dose (in mg/kg I.V.) which could inhibit the effect of pentagastrin by 50%, could be calculated.

[3] = target: T2, CCK-A (Cavia porcellus, UniProt Q63931); assay: Anti-CCK-A activity on guinea-pig gall bladder stimulated in vitro by CCK-8; conditions: for Ratio I/II (CCK-A IC50 / CCK-B IC50): gall bladder IC50 over gastric mucous cells IC50; for IC50: guinea-pig gall bladder in vitro, CCK-8 10 ng/ml, read-out: CCK-A-antagonistic activity IC50 (I)
T2 construct: A longitudinal strip of guinea-pig gall-bladder was put in a bath for isolated organs; from tissue; host or cells: guinea-pig gall bladder longitudinal strip
T2 sequence (Q63931 1-430): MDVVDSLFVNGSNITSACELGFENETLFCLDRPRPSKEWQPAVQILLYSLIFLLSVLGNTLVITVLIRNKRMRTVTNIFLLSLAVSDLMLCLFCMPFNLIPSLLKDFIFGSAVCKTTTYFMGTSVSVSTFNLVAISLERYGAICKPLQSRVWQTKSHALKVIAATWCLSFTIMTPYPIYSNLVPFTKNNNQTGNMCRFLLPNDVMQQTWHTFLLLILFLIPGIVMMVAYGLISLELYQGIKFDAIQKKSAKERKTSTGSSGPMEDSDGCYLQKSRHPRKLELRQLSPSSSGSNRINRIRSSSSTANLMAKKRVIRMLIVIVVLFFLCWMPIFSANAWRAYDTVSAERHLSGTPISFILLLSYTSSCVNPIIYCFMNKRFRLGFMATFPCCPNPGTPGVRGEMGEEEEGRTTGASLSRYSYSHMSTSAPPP
Experimental: The experimental model used was guinea-pig gall bladder stimulated in vitro by CCK-8, with the use of lorglumide as the reference standard. A longitudinal strip of guinea-pig gall-bladder was put in a bath for isolated organs in the presence of Krebs buffer at a temperature of 32° C., with continuous oxygenation with an oxygen-CO2 mixture (95-[…]). The isometric contractions were detected by means of a force transducer and recorded.

[4] = target: T3, central CCK-B receptor (Cavia porcellus, UniProt H0VZC5); assay: Inhibition of the binding of [3-H][N-methyl-N-leucine]CCK-8 to guinea-pig cortical membranes; conditions: for IC50: guinea-pig cortical membranes, 150 minutes at 25° C.
T3 construct: Cerebral cortices of male white guinea-pigs were thus used; from tissue; host or cells: cerebral cortex membranes of male white guinea-pigs
T3 sequence (H0VZC5 1-426): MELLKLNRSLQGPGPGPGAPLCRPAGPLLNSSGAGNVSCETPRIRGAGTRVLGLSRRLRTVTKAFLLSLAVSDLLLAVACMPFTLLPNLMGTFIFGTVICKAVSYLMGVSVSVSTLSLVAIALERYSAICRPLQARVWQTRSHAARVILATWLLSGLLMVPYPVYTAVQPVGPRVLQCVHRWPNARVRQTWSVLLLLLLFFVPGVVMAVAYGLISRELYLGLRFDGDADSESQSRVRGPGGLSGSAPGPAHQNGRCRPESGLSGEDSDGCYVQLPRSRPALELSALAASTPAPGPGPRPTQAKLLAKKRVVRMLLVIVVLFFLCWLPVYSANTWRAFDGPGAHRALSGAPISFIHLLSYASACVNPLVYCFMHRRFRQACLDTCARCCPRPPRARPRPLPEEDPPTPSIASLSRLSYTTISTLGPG
How it was run: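 Male guinea-pig cerebral cortex membranes (about 300 mcg protein/ml) incubated with non-sulphated [3-H]-labelled CCK-8 tracer and compound 150 minutes at 25° C. Pellet radioactivity counted by liquid scintillation; nonspecific binding defined with 5.10^-6 M CCK-8.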

[5] = tested on: mouse; assay: Black and White Box test in the mouse (anxiolytic activity); type: in vivo; conditions: for LIGHT TIME TOTAL TIME / LIGHT-DARK MOVEMENTS / MOV. DARK % TOTAL MOV. / TOTAL MOVEMENTS: 5 minutes
Experimental: It has recently been postulated that the central CCK-B receptor has an important role in anxiety. This is in accordance with studies also carried out in man, which have shown that the central CCK-B mechanisms have an important function in the mediation of panic attacks [Bradwejn, H. et al; J. Psychopharmacology 6 (1992), 345]. […] This experimental model, which was carried out according to Costall et al [Pharm. Biochem. Behav. 32 (1989), 777-785], used a box with dimensions of 45×21×21(h) cm divided into 2 compartments which communicated with one another through a 13×5 cm hole. The smaller compartment (1/3 of the total area) had black walls, whereas the larger had transparent walls and was illuminated by a lamp which was placed 20 cm above the box and supplied light at 20W. Under the floor there was an activity meter which recorded the movements performed by the animal in the individual compartments. The experiment was started by placing the animal in the centre of the illuminated box; as well as movements, the time which the animal spent in the dark and in the light areas and the number of movements between the 2 compartments were then recorded for 5 minutes. A control animal generally preferred to stay in the dark compartment where it felt better protected from an unusual environmental situation which put it in a state of anxiety. In this experimental model, a compound having anxiolytic activity decreased the % of movements into the dark in comparison with the total movements, increased the movements between the two light-dark compartments, and increased the % of time spent in the light in comparison with the total time.
The results obtained are shown in Table 7, where the activities obtained with compounds 9, 21 and 51 are given, tested in comparison with diazepam.

## O=C(O)CC[C@@H](NC(=O)c1cc(Cl)cc(Cl)c1)C(=O)N1CCC2(CCCC2)CC1 [CR 2194, (R)-5-(8-azaspiro[4.5]decan-8-yl)-4-(3,5-dichloro-benzoylamino)-5-oxopentanoic acid, reference compound]
[1]
  Ratio IC50 Binding cortex / IC50 (gastric mucous cells): 6.3
  CCK-B-antagonistic activity IC50 (II): 380 nM
  IC50, inhibition of the increase of cytosolic calcium: 380 nM
[2]
  ED50: 11 mg/kg and 24.9 µmol/kg
[3]
  Ratio I/II (CCK-A IC50 / CCK-B IC50): 35.5
  IC50: 13500 nM

## O=C(CC[C@@H](NC(=O)c1cc(Cl)cc(Cl)c1)C(=O)N1CCC2(CCCC2)CC1)N[C@@H](Cc1ccccc1)C(=O)O [Compound 10]
[4]
  IC50: 730 nM
[1]
  Ratio IC50 Binding cortex / IC50 (gastric mucous cells): 3.7
  CCK-B-antagonistic activity IC50 (II): 200 nM
  IC50, inhibition of the increase of cytosolic calcium: 200 nM
[2]
  ED50: 28.4 mg/kg and 48.3 µmol/kg
[3]
  Ratio I/II (CCK-A IC50 / CCK-B IC50): 179
  IC50: 35800 nM

## O=C(O)C[C@@H](Cc1ccccc1)NC(=O)CC[C@@H](NC(=O)c1cc(Cl)cc(Cl)c1)C(=O)N1CCC2(CCCC2)CC1 [Compound 15]
[4]; binding, guinea-pig cortex
  times more active than the corresponding diastereoisomer at the carbon atom (**): 1.5 times
[4]
  IC50: 220 nM
[1]
  Ratio IC50 Binding cortex / IC50 (gastric mucous cells): 7.3
  CCK-B-antagonistic activity IC50 (II): 30 nM
  IC50, inhibition of the increase of cytosolic calcium: 30 nM
[2]
  ED50: 13.5 mg/kg and 22.4 µmol/kg
[3]
  Ratio I/II (CCK-A IC50 / CCK-B IC50): 160
  IC50: 4800 nM

## CN(C(=O)CC[C@@H](NC(=O)c1cc(Cl)cc(Cl)c1)C(=O)N1CCC2(CCCC2)CC1)c1ccccc1C(=O)O [Compound 51]
[4]
  IC50: 120 nM
[1]
  Ratio IC50 Binding cortex / IC50 (gastric mucous cells): 2.4
  IC50, inhibition of the increase of cytosolic calcium: 50 nM
[2]
  ED50: 9 mg/kg and 15.7 µmol/kg
[5]; 0.1 mg/kg IP
  EFF. % VS CONTROL (LIGHT TIME TOTAL TIME): 12%
  EFF. % VS CONTROL (LIGHT-DARK MOVEMENTS): 19%
  EFF. % VS CONTROL (MOV. DARK % TOTAL MOV.): -12%
  LIGHT TIME TOTAL TIME: 27.0%
  LIGHT-DARK MOVEMENTS: 17.6
  MOV. DARK % TOTAL MOV.: 61%
  TOTAL MOVEMENTS: 472
[5]; 1.0 mg/kg IP
  EFF. % VS CONTROL (LIGHT TIME TOTAL TIME): 48%
  EFF. % VS CONTROL (LIGHT-DARK MOVEMENTS): 34%
  EFF. % VS CONTROL (MOV. DARK % TOTAL MOV.): -14%
  LIGHT TIME TOTAL TIME: 35.6%
  LIGHT-DARK MOVEMENTS: 19.8
  MOV. DARK % TOTAL MOV.: 59%
  TOTAL MOVEMENTS: 484
[5]; 10.0 mg/kg IP
  EFF. % VS CONTROL (LIGHT TIME TOTAL TIME): 16%
  EFF. % VS CONTROL (LIGHT-DARK MOVEMENTS): 37%
  EFF. % VS CONTROL (MOV. DARK % TOTAL MOV.): -10%
  LIGHT TIME TOTAL TIME: 27.8%
  LIGHT-DARK MOVEMENTS: 20.3
  MOV. DARK % TOTAL MOV.: 62%
  TOTAL MOVEMENTS: 436
[5]; Black and White Box test, IP
  anxiolytic activity, result in words: anxiolytic activity without sedative activity
[5]; summary over doses
  increase in the number of light-dark movements in comparison with the controls: 20-30%

## O=C(N[C@H](CCC(=O)N1CCCC(C(=O)O)C1)C(=O)N1CCC2(CCCC2)CC1)c1cc(Cl)cc(Cl)c1 (stereo partly drawn) [Compound 58, (R)-1-(piperidine-3-carboxy)-1-oxo-5-(8-azaspiro[4.5]decan-8-yl)-4-(3,5-dichloro-benzoylamino)-5-oxopentanoic acid]
[4]
  IC50: 640 nM
[1]
  Ratio IC50 Binding cortex / IC50 (gastric mucous cells): 1.9
  IC50, inhibition of the increase of cytosolic calcium: 330 nM
[2]
  ED50: 10.1 mg/kg and 18.3 µmol/kg
